Assay results reported in patent publication US11008314B2, “Compounds and methods for modulating interleukin-2-inducible t-cell kinase” (CORVUS PHARMACEUTICALS, INC., priority 2016, dated 2021).

Columns and labels:
Assay type in all cases: biochemical
[1] = molecular target: ITK (Homo sapiens (Human), UniProt Q08881); assay: IC50 against ITK
[2] = molecular target: JAK3 (Homo sapiens (Human), UniProt P52333); assay: IC50 against JAK3
[3] = molecular target: TXK (Homo sapiens (Human), UniProt P42681); assay: IC50 against TXK; conditions: for TXK/ITK: ratio of TXK IC50 to ITK IC50
[4] = molecular target: BTK (Homo sapiens (Human), UniProt Q06187); assay: IC50 against BTK
Chain of BTK (Q06187 whole entry, species assumed): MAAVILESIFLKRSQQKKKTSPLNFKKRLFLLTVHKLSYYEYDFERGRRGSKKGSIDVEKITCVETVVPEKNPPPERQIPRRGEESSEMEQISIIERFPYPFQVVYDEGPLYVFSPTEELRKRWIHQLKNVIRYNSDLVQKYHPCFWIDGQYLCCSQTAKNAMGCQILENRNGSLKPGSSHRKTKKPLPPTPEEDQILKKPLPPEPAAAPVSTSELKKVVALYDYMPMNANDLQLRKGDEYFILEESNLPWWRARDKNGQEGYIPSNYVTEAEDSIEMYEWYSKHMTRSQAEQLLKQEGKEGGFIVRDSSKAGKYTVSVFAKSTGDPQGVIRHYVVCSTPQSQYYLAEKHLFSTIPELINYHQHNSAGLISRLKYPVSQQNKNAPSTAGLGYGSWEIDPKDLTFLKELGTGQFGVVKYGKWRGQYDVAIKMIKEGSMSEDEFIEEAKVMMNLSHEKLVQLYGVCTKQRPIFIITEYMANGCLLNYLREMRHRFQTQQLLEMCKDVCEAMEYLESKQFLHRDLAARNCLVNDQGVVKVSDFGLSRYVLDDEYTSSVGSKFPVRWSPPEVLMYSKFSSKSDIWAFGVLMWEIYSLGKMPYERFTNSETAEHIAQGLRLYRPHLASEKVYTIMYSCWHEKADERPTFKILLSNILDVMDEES

Chain of JAK3 (P52333 whole entry, species assumed): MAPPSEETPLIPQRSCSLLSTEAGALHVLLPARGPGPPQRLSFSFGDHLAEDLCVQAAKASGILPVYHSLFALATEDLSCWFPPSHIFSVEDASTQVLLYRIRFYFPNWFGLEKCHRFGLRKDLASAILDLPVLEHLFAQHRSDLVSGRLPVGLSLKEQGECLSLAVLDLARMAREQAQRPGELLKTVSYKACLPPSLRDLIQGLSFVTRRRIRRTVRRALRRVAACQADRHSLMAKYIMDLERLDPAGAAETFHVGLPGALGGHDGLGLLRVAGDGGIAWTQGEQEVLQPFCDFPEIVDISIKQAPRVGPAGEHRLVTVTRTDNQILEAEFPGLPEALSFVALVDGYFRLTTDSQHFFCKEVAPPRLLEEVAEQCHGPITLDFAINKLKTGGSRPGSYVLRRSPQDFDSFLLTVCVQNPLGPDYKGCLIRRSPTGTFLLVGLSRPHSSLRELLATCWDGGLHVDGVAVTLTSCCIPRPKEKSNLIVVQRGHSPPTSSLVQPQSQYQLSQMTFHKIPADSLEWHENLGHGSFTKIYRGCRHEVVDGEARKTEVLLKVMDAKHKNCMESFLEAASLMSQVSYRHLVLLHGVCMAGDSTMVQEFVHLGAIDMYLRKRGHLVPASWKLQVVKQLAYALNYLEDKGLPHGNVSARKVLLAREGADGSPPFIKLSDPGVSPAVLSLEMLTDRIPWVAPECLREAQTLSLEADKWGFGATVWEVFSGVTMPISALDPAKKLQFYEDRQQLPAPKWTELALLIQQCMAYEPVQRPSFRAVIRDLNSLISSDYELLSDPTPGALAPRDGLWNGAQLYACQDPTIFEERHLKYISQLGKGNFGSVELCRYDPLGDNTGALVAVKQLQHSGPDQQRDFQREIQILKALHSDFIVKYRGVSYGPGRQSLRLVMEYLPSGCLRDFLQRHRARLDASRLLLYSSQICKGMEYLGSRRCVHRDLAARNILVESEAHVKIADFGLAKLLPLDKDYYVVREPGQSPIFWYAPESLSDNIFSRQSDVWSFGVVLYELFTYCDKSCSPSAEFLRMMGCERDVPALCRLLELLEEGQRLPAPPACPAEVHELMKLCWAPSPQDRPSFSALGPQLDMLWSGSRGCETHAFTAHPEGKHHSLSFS
Chain of ITK (Q08881 whole entry): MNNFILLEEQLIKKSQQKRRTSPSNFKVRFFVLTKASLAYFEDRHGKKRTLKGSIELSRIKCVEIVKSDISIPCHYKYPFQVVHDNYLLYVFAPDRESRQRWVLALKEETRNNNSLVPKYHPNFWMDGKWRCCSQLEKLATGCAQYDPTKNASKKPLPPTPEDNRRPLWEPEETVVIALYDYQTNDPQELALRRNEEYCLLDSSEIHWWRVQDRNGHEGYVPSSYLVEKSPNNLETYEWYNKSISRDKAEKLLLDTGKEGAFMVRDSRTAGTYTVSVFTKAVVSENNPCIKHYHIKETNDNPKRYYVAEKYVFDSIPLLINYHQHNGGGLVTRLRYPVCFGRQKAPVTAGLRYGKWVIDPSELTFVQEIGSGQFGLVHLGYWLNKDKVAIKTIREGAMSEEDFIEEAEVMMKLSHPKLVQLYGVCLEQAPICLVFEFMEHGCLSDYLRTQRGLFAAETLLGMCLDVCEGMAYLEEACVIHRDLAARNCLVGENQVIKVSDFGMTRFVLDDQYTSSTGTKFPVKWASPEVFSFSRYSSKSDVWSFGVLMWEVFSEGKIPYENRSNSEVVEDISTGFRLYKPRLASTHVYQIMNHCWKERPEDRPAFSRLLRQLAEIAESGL
Chain of TXK (P42681 whole entry, species assumed): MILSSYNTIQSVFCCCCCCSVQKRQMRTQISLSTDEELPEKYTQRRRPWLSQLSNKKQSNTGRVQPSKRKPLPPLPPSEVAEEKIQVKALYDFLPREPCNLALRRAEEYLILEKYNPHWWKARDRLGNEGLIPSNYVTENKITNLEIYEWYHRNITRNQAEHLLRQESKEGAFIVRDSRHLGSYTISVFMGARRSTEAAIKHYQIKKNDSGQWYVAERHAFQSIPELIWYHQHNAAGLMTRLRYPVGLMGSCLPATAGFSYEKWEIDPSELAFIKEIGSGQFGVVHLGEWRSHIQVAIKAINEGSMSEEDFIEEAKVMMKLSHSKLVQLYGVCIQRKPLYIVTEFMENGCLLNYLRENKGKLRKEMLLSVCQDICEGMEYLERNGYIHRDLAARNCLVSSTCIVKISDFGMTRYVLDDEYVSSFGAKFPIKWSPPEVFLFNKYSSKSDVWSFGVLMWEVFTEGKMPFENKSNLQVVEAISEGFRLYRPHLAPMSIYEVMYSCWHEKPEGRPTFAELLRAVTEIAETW

IC50 [1] | IC50 [2] | IC50 [3] | TXK/ITK [3] | IC50 [4] | SMILES
< 10 nM | 100 to 1000 nM | 10 to 100 nM | 47.6 | 100 to 1000 nM | C=CC(=O)N1CCCN(C(=O)c2cc(Sc3cnc(Nc4ccccn4)s3)c(C)cc2OC)C[C@H]1C [Compound 103]
< 10 nM | 100 to 1000 nM | 10 to 100 nM | 3.6 | 100 to 1000 nM | C=CC(=O)N1CCN(C(=O)c2cc(Sc3cnc(NC(=O)C4CC4)s3)c(C)cc2CC)C[C@H]1CC [Compound 104]
< 10 nM | 1000 to 10000 nM | 100 to 1000 nM | 12.3 | 100 to 1000 nM | C=CC(=O)N1CCCN(C(=O)c2cc(Sc3cnc(NC(=O)C4CC4)s3)c(C)cc2CC)C[C@H]1C [Compound 105]
< 10 nM | 10 to 100 nM | < 10 nM | 2.9 | 10 to 100 nM | C=CC(=O)N1CCN(C(=O)c2cc(Sc3cnc(NC(=O)C4CC4)s3)c(C)cc2CC)CC1 [Compound 106]
< 10 nM | 100 to 1000 nM | 10 to 100 nM | 61.8 | 100 to 1000 nM | C=CC(=O)N1CCN(C(=O)c2cc(Sc3cnc(NC(=O)c4cccc(CN(C)C)c4)s3)c(C)cc2C)CC1 [Compound 107]
< 10 nM | 100 to 1000 nM | 10 to 100 nM | 12.1 | 100 to 1000 nM | C=CC(=O)N1CCN(C(=O)c2cc(Sc3cnc(NC(=O)c4cnn(C)c4)s3)c(C)cc2C)CC1 [Compound 108]
< 10 nM | 10 to 100 nM | 10 to 100 nM | 13.5 | 10 to 100 nM | C=CC(=O)N1CCN(C(=O)c2cc(Sc3cnc(NC(=O)c4ccsc4)s3)c(C)cc2C)CC1 [Compound 109]
100 to 1000 nM | 1000 to 10000 nM | ≥ 10000 nM | 46.6 | ≥ 10000 nM | C=CC(=O)N1CCCN(C(=O)c2cc(Sc3cnc(NC(=O)N(C)C)s3)c(C)cc2OC)C[C@H]1C [Compound 110]
< 10 nM | 1000 to 10000 nM | 100 to 1000 nM | 81.1 | 100 to 1000 nM | C=CC(=O)N1CCCN(C(=O)c2cc(Sc3cnc(NC(=O)C4CC4)s3)c(C)cc2OC)C[C@H]1CC [Compound 111]
< 10 nM | 1000 to 10000 nM | 100 to 1000 nM | 118.0 | 100 to 1000 nM | C=CC(=O)N1CCCN(C(=O)c2cc(Sc3cnc(NC(=O)C4CC4)s3)c(C)cc2C)C[C@H]1CC [Compound 112]
< 10 nM | 100 to 1000 nM | 10 to 100 nM | 12.1 | 10 to 100 nM | C=CC(=O)N1CCN(C(=O)c2cc(Sc3cnc(NC(=O)c4ccsc4)s3)c(C)cc2OC)C[C@H]1CC [Compound 113]
< 10 nM | 1000 to 10000 nM | 10 to 100 nM | 30.1 | 100 to 1000 nM | C=CC(=O)N1CCN(C(=O)c2cc(Sc3cnc(NC(=O)c4cnsc4)s3)c(C)cc2OC)C[C@H]1CC [Compound 114]
< 10 nM | 1000 to 10000 nM | 10 to 100 nM | 9.8 | 100 to 1000 nM | C=CC(=O)N1CCN(C(=O)c2cc(Sc3cnc(NC(=O)c4cnn(C)c4)s3)c(C)cc2OC)C[C@H]1CC [Compound 115]
< 10 nM | 1000 to 10000 nM | 10 to 100 nM | 23.3 | 100 to 1000 nM | C=CC(=O)N1CCN(C(=O)c2cc(Sc3cnc(NC(=O)c4cnn(CCN(C)C)c4)s3)c(C)cc2OC)C[C@H]1CC [Compound 116]
< 10 nM | 1000 to 10000 nM | 10 to 100 nM | 65.5 | 100 to 1000 nM | C=CC(=O)N1CCN(C(=O)c2cc(Sc3cnc(NC(=O)c4cccc(CN(C)C)c4)s3)c(C)cc2OC)C[C@H]1CC [Compound 117]
≥ 10000 nM | < 10 nM | < 10 nM | – | < 10 nM | C=CC(=O)N1CCN(C(=O)c2cc(Sc3cnc(NC(=O)C4CC4)s3)c(C)cc2C)C[C@H]1C#N [Compound 118]
< 10 nM | < 10 nM | < 10 nM | 3.2 | 10 to 100 nM | C=CC(=O)N1CCN(C(=O)c2cc(Sc3cnc(NC(C)=O)s3)c(C)cc2C)C[C@H]1C#N [Compound 119]
< 10 nM | 1000 to 10000 nM | 100 to 1000 nM | 66.4 | 100 to 1000 nM | C=CC(=O)N1CCCN(C(=O)c2cc(Sc3cnc(NC(=O)c4ccsc4)s3)c(C)cc2OC)C[C@H]1CC [Compound 120]
< 10 nM | 1000 to 10000 nM | 100 to 1000 nM | 146.1 | 100 to 1000 nM | C=CC(=O)N1CCCN(C(=O)c2cc(Sc3cnc(NC(=O)c4cnsc4)s3)c(C)cc2OC)C[C@H]1CC [Compound 121]
< 10 nM | 100 to 1000 nM | 100 to 1000 nM | 118.5 | 100 to 1000 nM | C=CC(=O)N1CCCN(C(=O)c2cc(Sc3cnc(NC(=O)c4ccsc4)s3)c(C)cc2C)C[C@H]1CC [Compound 122]

IC50 [1] | IC50 [2] | IC50 [3] | TXK/ITK [3] | IC50 [4] | SMILES
< 10 nM | 1000 to 10000 nM | 100 to 1000 nM | 144.0 | 100 to 1000 nM | C=CC(=O)N1CCCN(C(=O)c2cc(Sc3cnc(NC(=O)c4cnsc4)s3)c(C)cc2C)C[C@H]1CC [Compound 123]
< 10 nM | < 10 nM | < 10 nM | – | < 10 nM | C=CC(=O)N1CCN(C(=O)c2cc(Sc3cnc(NC(=O)c4cccc(CN(C)C)c4)s3)c(C)cc2OC)C[C@H]1C#N [Compound 124]
< 10 nM | < 10 nM | < 10 nM | 2.3 | 10 to 100 nM | C=CC(=O)N1CCN(C(=O)c2cc(Sc3cnc(NC(=O)c4cccc(CN(C)C)c4)s3)c(C)cc2C)C[C@H]1C#N [Compound 125]
< 10 nM | 10 to 100 nM | 10 to 100 nM | 13.5 | 10 to 100 nM | C=CC(=O)N1CCN(C(=O)c2cc(Sc3cnc(Nc4ccccn4)s3)c(Cl)cc2C)CC1 [Compound 126]
10 to 100 nM | ≥ 10000 nM | 100 to 1000 nM | 7.6 | 100 to 1000 nM | C=CC(=O)N1CCCN(C(=O)c2cc(Cc3cnc(NC(=O)C4CC4)s3)c(C)cc2C)C[C@H]1C [Compound 127]
10 to 100 nM | ≥ 10000 nM | 100 to 1000 nM | 12.8 | 100 to 1000 nM | C=CC(=O)N1CCCN(C(=O)c2cc(Cc3cnc(NC(=O)C4CC4)s3)c(C)cc2OC)C[C@H]1C [Compound 128]
< 10 nM | 100 to 1000 nM | 10 to 100 nM | 46.0 | 10 to 100 nM | C=CC(=O)N1CCN(C(=O)c2cc(Sc3cnc(NC(=O)c4cccc(CN(C)C)c4)s3)c(C)cc2C)C[C@H]1CC [Compound 129]
< 10 nM | 100 to 1000 nM | 10 to 100 nM | 7.0 | 100 to 1000 nM | C=CC(=O)N1CCN(C(=O)c2cc(Sc3cnc(NC(=O)c4ccsc4)s3)c(C)cc2C)C[C@H]1CC [Compound 130]
< 10 nM | 100 to 1000 nM | 10 to 100 nM | 11.0 | 100 to 1000 nM | C=CC(=O)N1CCN(C(=O)c2cc(Sc3cnc(NC(=O)c4cnsc4)s3)c(C)cc2C)C[C@H]1CC [Compound 131]
< 10 nM | 100 to 1000 nM | 10 to 100 nM | – | 100 to 1000 nM | C=CC(=O)N1CCN(C(=O)c2cc(Sc3cnc(NC(=O)c4ccn(C)c4)s3)c(C)cc2OC)C[C@H]1CC [Compound 132]
< 10 nM | 10 to 100 nM | < 10 nM | 4.6 | 10 to 100 nM | C=CC(=O)N1CCN(C(=O)c2cc(Sc3cnc(Nc4ccccn4)s3)c(C)cc2C)CC1 [Compound 133]
< 10 nM | 10 to 100 nM | < 10 nM | – | < 10 nM | C=CC(=O)N1CCN(C(=O)c2cc(Sc3cnc(Nc4ccc(CN(C)C)cn4)s3)c(C)cc2OC)CC1 [Compound 134]
< 10 nM | 100 to 1000 nM | 10 to 100 nM | 42 | 10 to 100 nM | C=CC(=O)N1CCCN(C(=O)c2cc(Sc3cnc(Nc4ncccc4C)s3)c(C)cc2OC)C[C@H]1C [Compound 136]
< 10 nM | 100 to 1000 nM | < 10 nM | 0.93 | < 10 nM | C=CC(=O)N1CCN(C(=O)c2cc(C(C)c3cnc(Nc4ccccn4)s3)c(C)cc2OC)CC1 (centres unmarked) [Compound 137]
10 to 100 nM | 100 to 1000 nM | 10 to 100 nM | 3.29 | 100 to 1000 nM | C=CC(=O)N1CCN(C(=O)c2cc(Sc3cnc(Nc4ncc(C)cc4C)s3)c(C)cc2C)CC1 [Compound 138]
10 to 100 nM | 100 to 1000 nM | 10 to 100 nM | 4.65 | 100 to 1000 nM | C=CC(=O)N1CCN(C(=O)c2cc(Sc3cnc(Nc4ncc(C)nc4C)s3)c(C)cc2C)CC1 [Compound 139]
< 10 nM | 1000 to 10000 nM | 10 to 100 nM | 2.66 | 10 to 100 nM | C=CC(=O)N1CCN(C(=O)c2cc(C(C)c3cnc(NC(=O)C4CC4)s3)c(C)cc2OC)CC1 (centres unmarked) [Compound 140]
< 10 nM | 100 to 1000 nM | 10 to 100 nM | 14.70 | 10 to 100 nM | C=CC(=O)N1CCN(C(=O)c2cc(Sc3cnc(NC(=O)c4ccsc4)s3)c(C)cc2OC)CC1(C)C [Compound 141, N-(5-((5-(4-acryloyl-3,3-dimethylpiperazine-1-carbonyl)-4-methoxy-2-methylphenyl)thio)thiazol-2-yl)thiophene-3-carboxamide]
< 10 nM | < 10 nM | < 10 nM | 1.00 | < 10 nM | C=CC(=O)N1CCN(C(=O)c2cc(Sc3cnc(NC(=O)c4ccsc4)s3)c(C)cc2OC)C(C)(C)C1 [Compound 142, N-(5-((5-(4-acryloyl-2,2-dimethylpiperazine-1-carbonyl)-4-methoxy-2-methylphenyl)thio)thiazol-2-yl)thiophene-3-carboxamide]
